Among the test systems are Candida albicans; Klebsiella pneumoniae; Acinetobacter baumannii.
Common to all, as to assay: ≥ marks a high value that may be exact or a test limit, other limits are often not marked, values filed in µg/mL are converted to µM
Experiment [1] has as its system Escherichia coli ATCC 25922.
In experiment [2] the test system is Staphylococcus aureus ATCC 25923.
The subject of experiment [3] is Pseudomonas aeruginosa ATCC 9027.
The subject of experiment [4] is Klebsiella pneumoniae ATCC 700603.
In experiment [5] the test system is Pseudomonas aeruginosa ATCC 27853.
Experiment [6] deals with Bacillus subtilis ATCC 6633.

In brackets after ≈: the same amount, converted by molar mass.

As usually defined, the MIC is the lowest concentration that inhibits growth of the organism. Low values mean a more susceptible organism, high ones a less susceptible organism.

In the case of `CC[C@H](C)[C@H](NC(=O)CNC(=O)[C@H](CC(N)=O)NC(=O)[C@@H](NC(=O)[C@H](C)NC(=O)[C@H](CC(N)=O)NC(=O)[C@H](CC(C)C)NC(=O)[C@H](C)NC(=O)[C@H](C)NC(=O)[C@H](CCCN=C(N)N)NC(=O)CNC(=O)[C@H](C)NC(=O)[C@H](C)NC(=O)[C@H](C)NC(=O)[C@H](C)NC(=O)[C@H](CCSC)NC(=O)[C@H](CC(=O)O)NC(=O)[C@H](CCCCN)NC(=O)[C@@H](NC(=O)[C@H](CO)NC(=O)[C@H](CO)NC(=O)[C@H](Cc1c[nH]c2ccccc12)NC(=O)[C@H](CC(C)C)NC(=O)[C@@H](N)CO)[C@@H](C)CC)C(C)C)C(=O)N[C@@H](CC(C)C)C(=O)N[C@@H](CC(N)=O)C(=O)N1CCC[C@H]1C(N)=O` [SLWSSIKDMAAAAGRAALNAVNGILNP], the MIC in the experiment on Candida albicans was above 189 µM; in [1], 47.2 µM (≈ 128 µg/mL); with Klebsiella pneumoniae it was 189 µM (≈ 512 µg/mL); in experiment [2], 189 µM (≈ 512 µg/mL).

As to `CC[C@H](C)[C@H](NC(=O)[C@H](CC(C)C)NC(=O)[C@H](CCCCN)NC(=O)[C@@H](NC(=O)[C@H](CC(C)C)NC(=O)[C@H](CCCN=C(N)N)NC(=O)[C@H](CCCN=C(N)N)NC(=O)[C@@H](NC(=O)[C@H](C)NC(=O)[C@H](CCCCN)NC(=O)[C@H](C)NC(=O)[C@H](CC(C)C)NC(=O)[C@@H](NC(=O)[C@@H](N)CCCN=C(N)N)[C@@H](C)CC)[C@@H](C)O)C(C)C)C(=O)N[C@H](C(=O)N[C@@H](CO)C(=O)NCC(=O)O)C(C)C` [RILAKATRRLVKLIVSG], the MIC in experiment [3] was above 25 µM; in [1] it was above 25 µM; against Acinetobacter baumannii, 25 µM (≈ 47.4 µg/mL); in experiment [4], above 25 µM; in experiment [2], above 25 µM.

On to `CC(C)C[C@H](NC(=O)CNC(=O)[C@H](C)NC(=O)[C@@H](NC(=O)[C@H](CCCN=C(N)N)NC(=O)[C@H](CCCN=C(N)N)NC(=O)[C@H](CC(C)C)NC(=O)[C@@H](N)CC(C)C)C(C)C)C(=O)N[C@@H](CC(C)C)C(=O)N[C@@H](CCCCN)C(=O)N[C@@H](CCC(N)=O)C(=O)N[C@@H](Cc1ccccc1)C(=O)N[C@@H](C)C(=O)N[C@@H](CCCCN)C(=O)O` [LLRRVAGLLKQFAK], for which the MIC amounted to 2.48 µM (≈ 4 µg/mL) in experiment [1], 4.96 µM (≈ 8 µg/mL) in experiment [5], 9.92 µM (≈ 16 µg/mL) in [6] and 9.92 µM (≈ 16 µg/mL) in experiment [2].

On to `CC[C@H](C)[C@H](NC(=O)[C@H](CCCN=C(N)N)NC(=O)[C@@H](NC(=O)[C@@H]1CCCN1C(=O)[C@H](CCCN=C(N)N)NC(=O)[C@@H](NC(=O)[C@@H]1CCCN1C(=O)[C@H](CCCN=C(N)N)NC(=O)[C@H](CC(C)C)NC(=O)CNC(=O)[C@H](Cc1cnc[nH]1)NC(=O)[C@@H]1CCCN1C(=O)CNC(=O)[C@H](CC(C)C)NC(=O)[C@H](CC(N)=O)NC(=O)[C@H](Cc1c[nH]c2ccccc12)NC(=O)[C@H](C)NC(=O)[C@@H](NC(=O)[C@H](C)N)[C@@H](C)O)[C@@H](C)CC)[C@@H](C)CC)C(=O)N[C@@H](CCCN=C(N)N)C(=O)N1CCC[C@H]1C(=O)N[C@@H](CC(C)C)C(=O)N[C@@H](CS)C(=O)NCC(=O)N[C@@H](CCCCN)C(=O)N[C@@H](CC(=O)O)C(=O)N[C@@H](CCCCN)C(=O)N[C@@H](CO)C(=O)O` [ATAWNLGPHGLRPIRPIRIRPLCGKDKS], for which, in experiment [6], the minimal inhibitory concentration (MIC) is at least 100 µM.

For `CC[C@H](C)[C@H](N)C(=O)N[C@@H](Cc1cnc[nH]1)C(=O)N[C@@H](CCCCN)C(=O)N[C@@H](CC(C)C)C(=O)N[C@H](C(=O)N[C@@H](CCCCN)C(=O)N[C@@H](CC(C)C)C(=O)N[C@@H](Cc1c[nH]c2ccccc12)C(=O)N[C@@H](CC(C)C)C(=O)N[C@@H](CC(N)=O)C(=O)N[C@@H](CC(C)C)C(=O)NCC(=O)N[C@@H](CCCCN)C(=O)N[C@@H](CCCCN)C(=O)N[C@@H](Cc1ccccc1)C(=O)O)C(C)C` [IHKLVKLWLNLGKKF], the minimum inhibitory concentration (MIC) in experiment [3] was above 64 µM; in [1], 64 µM (≈ 118 µg/mL); against Acinetobacter baumannii, at least 64 µM; in [4], 64 µM (≈ 118 µg/mL); in experiment [2] it was above 64 µM.

Source of the values: DBAASP.
